In US8143259B2, “Cold menthol receptor antagonists” (Janssen Pharmaceutica, NV, priority 2008, dated 2012):
pIC50: −log10 of the molar value.

Target: T1, canine TRPM8 (Canis lupus familiaris, UniProt Q1A7N1)
T1 construct: expressed in transfected cells
Assay: In Vitro Canine TRPM8 Functional Assay (Ca2+ fluorescence, icilin activation)
Format: cell-based
Settings: for inhibition at 0.5 µM: HEK293, 0.5 μM compound; for inhibition at 0.5 µM / inhibition at 0.2 µM / % Inh @ 0.2 μM: canine TRPM8 HEK293, icilin; for pIC50: HEK293 cells stably expressing canine TRPM8, icilin activation, Ca2+ fluorescence; for inhibition at 0.2 µM: HEK293, 0.2 μM compound; for % Inh @ 0.2 μM: 0.2 μM compound
Procedure, shortened: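 Antagonism read as inhibition of the intracellular Ca2+ rise evoked by icilin (~EC80), measured by FLIPR or FDSS. Stable canine TRPM8 HEK293 line, Calcium 3 dye; 5 min compound preincubation. Normalised, basal-corrected peak fluorescence from quadruplicates fitted to sigmoidal curves.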

T1 sequence (Q1A7N1 1-1104): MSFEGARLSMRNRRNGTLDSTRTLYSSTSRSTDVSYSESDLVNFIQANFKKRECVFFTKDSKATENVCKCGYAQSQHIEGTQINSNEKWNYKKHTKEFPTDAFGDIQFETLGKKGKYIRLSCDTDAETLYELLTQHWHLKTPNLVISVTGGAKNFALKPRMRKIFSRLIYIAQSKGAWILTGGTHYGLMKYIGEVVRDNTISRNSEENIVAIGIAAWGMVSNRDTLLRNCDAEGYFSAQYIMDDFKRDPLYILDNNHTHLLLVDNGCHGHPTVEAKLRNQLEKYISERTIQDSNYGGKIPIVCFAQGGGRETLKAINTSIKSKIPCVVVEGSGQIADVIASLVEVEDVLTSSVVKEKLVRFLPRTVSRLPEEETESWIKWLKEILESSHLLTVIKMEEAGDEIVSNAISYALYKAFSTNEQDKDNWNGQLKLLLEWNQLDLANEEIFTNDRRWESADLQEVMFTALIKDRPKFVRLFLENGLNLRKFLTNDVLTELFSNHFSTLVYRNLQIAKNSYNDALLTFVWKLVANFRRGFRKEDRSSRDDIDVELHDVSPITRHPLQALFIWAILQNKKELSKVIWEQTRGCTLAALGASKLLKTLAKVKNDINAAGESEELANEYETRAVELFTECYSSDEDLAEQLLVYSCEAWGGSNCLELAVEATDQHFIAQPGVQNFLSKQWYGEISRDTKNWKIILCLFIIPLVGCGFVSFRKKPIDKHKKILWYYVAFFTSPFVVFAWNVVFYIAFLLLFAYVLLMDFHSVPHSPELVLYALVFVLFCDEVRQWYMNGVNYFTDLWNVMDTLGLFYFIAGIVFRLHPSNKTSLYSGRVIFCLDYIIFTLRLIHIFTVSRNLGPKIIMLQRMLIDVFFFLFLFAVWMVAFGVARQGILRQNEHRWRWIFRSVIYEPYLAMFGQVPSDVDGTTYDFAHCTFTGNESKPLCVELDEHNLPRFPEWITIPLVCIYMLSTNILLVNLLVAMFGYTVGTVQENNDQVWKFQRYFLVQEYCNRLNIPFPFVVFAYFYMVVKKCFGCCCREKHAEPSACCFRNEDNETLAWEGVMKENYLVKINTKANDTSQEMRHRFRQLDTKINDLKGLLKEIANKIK

SMILES | inhibition at 0.5 µM [%] | pIC50 | inhibition at 0.2 µM [%] | % Inh @ 0.2 μM [%] | % Inh @ 0.2 μM (0.2 µM) [%]
O=C(C(CNc1ccccc1)c1ccc(C(F)(F)F)cc1)N1CCCC1c1ccccc1F (centres unmarked) [Cpd 103] | 75 | 6.74 |  |  | 
COc1ccc(C(Nc2sccc2C#N)C(=O)N2CCCC2c2ccccc2Cl)cc1 (centres unmarked) [Cpd 105] | 88 | 6.36 |  |  | 
O=C(C(CNc1ccccc1F)c1ccc(C(F)(F)F)cc1)N1Cc2ccccc2C1 (centres unmarked) [Cpd 106] | 98 | 6.77 |  |  | 
O=C(C(CNc1ccccc1F)c1ccc(C(F)(F)F)cc1)N1CCCC1c1ccccc1 (centres unmarked) [Cpd 108] | 88 | 6.48 |  |  | 
O=C(C(Nc1ccccc1F)c1ccc(Cl)cc1)N1CCCC1c1ccccc1Cl (centres unmarked) [Cpd 110] | 98 | 7.26 |  |  | 
COc1ccccc1C1CCCN1C(=O)C(Nc1ccccc1F)c1ccc(Cl)cc1 (centres unmarked) [Cpd 111] | 96 | 7.89 |  |  | 
O=C(C(Nc1ccccc1F)c1ccc(Cl)cc1)N1CCCC1c1ccccc1 (centres unmarked) [Cpd 112] | 96 | 7.74 |  |  | 
O=C(C(Nc1ccccc1F)c1ccc(Cl)cc1)N1Cc2ccccc2C1 (centres unmarked) [Cpd 113] | 98 | 7.21 |  |  | 
O=C(C(Nc1ccccc1F)c1ccc(Cl)cc1)N1Cc2cccc(F)c2C1 (centres unmarked) [Cpd 114] | 98 | 6.90 |  |  | 
O=C(C(Nc1ccccc1F)c1ccc(Cl)cc1)N1CCCC1c1ccccc1F (centres unmarked) [Cpd 115] | 97 | 8.00 |  |  | 
O=C(C(Nc1ccc(F)cc1)c1ccc(Cl)cc1)N1CCCC1c1ccccc1Cl (centres unmarked) [Cpd 116] | 98 | 7.10 |  |  | 
O=C(C(Nc1ccc(F)cc1)c1ccc(Cl)cc1)N1CCCC1c1ccccc1F (centres unmarked) [Cpd 117] | 101 | 7.32 |  |  | 
COc1ccccc1C1CCCN1C(=O)C(Nc1ccc(F)cc1)c1ccc(Cl)cc1 (centres unmarked) [Cpd 118] | 100 | 7.50 |  |  | 
O=C(C(Nc1ccc(F)cc1)c1ccc(Cl)cc1)N1CCCC1c1ccccc1 (centres unmarked) [Cpd 119] | 100 | 7.16 |  |  | 
O=C(C(Nc1ccc(F)cc1)c1ccc(Cl)cc1)N1Cc2ccccc2C1 (centres unmarked) [Cpd 120] | 95 | 6.89 |  |  | 
O=C(C(Nc1ccc(F)cc1)c1ccc(Cl)cc1)N1Cc2cccc(F)c2C1 (centres unmarked) [Cpd 121] | 97 | 6.90 |  |  | 
O=C(C(Nc1ccc(F)cc1F)c1ccc(Cl)cc1)N1CCCC1c1ccccc1Cl (centres unmarked) [Cpd 122] | 96 | 6.83 |  |  | 
O=C(C(Nc1ccc(F)cc1F)c1ccc(Cl)cc1)N1CCCC1c1ccccc1F (centres unmarked) [Cpd 123] | 97 | 7.00 |  |  | 
COc1ccccc1C1CCCN1C(=O)C(Nc1ccc(F)cc1F)c1ccc(Cl)cc1 (centres unmarked) [Cpd 124] | 98 | 7.09 |  |  | 
O=C(C(Nc1ccc(F)cc1F)c1ccc(Cl)cc1)N1CCCC1c1ccccc1 (centres unmarked) [Cpd 125] | 96 | 7.21 |  |  | 
O=C(C(Nc1ccc(F)cc1F)c1ccc(Cl)cc1)N1Cc2ccccc2C1 (centres unmarked) [Cpd 126] | 100 | 6.95 |  |  | 

SMILES | inhibition at 0.5 µM [%] | pIC50 | inhibition at 0.2 µM [%] | % Inh @ 0.2 μM [%] | % Inh @ 0.2 μM (0.2 µM) [%]
O=C(C(Nc1ccc(F)cc1F)c1ccc(Cl)cc1)N1Cc2cccc(F)c2C1 (centres unmarked) [Cpd 127] | 97 | 7.06 |  |  | 
O=C(C(Nc1ccccc1F)c1ccc(C(F)(F)F)cc1)N1CCCC1c1cccc(F)c1 (centres unmarked) [Cpd 132] | 99 | 8.05 |  |  | 
O=C(C(Nc1ccccc1F)c1ccc(C(F)(F)F)cc1)N1CCCC1c1ccc(F)cc1 (centres unmarked) [Cpd 135] | 100 | 7.43 |  |  | 
COc1ccc(NC(C(=O)N2CCCC2c2ccccc2Cl)c2ccc(Cl)cc2)cc1 (centres unmarked) [Cpd 136] | 90 | 6.71 |  |  | 
COc1ccc(NC(C(=O)N2CCCC2c2ccccc2F)c2ccc(Cl)cc2)cc1 (centres unmarked) [Cpd 137] | 81 | 7.00 |  |  | 
COc1ccc(NC(C(=O)N2CCCC2c2ccccc2OC)c2ccc(Cl)cc2)cc1 (centres unmarked) [Cpd 138] | 95 | 6.92 |  |  | 
COc1ccc(NC(C(=O)N2CCCC2c2ccccc2)c2ccc(Cl)cc2)cc1 (centres unmarked) [Cpd 139] | 81 | 6.94 |  |  | 
COc1ccc(NC(C(=O)N2Cc3ccccc3C2)c2ccc(Cl)cc2)cc1 (centres unmarked) [Cpd 140] | 97 | 6.88 |  |  | 
COc1ccc(NC(C(=O)N2Cc3cccc(F)c3C2)c2ccc(Cl)cc2)cc1 (centres unmarked) [Cpd 141] | 79 | 6.73 |  |  | 
O=C(C(Nc1ccccc1)c1ccc(Cl)cc1)N1CCCC1c1ccccc1F (centres unmarked) [Cpd 142] | 97 | 7.74 |  |  | 
O=C(C(Nc1c(F)cccc1F)c1ccc(Cl)cc1)N1CCCC1c1ccccc1Cl (centres unmarked) [Cpd 143] | 101 | 7.60 |  |  | 
O=C(C(Nc1c(F)cccc1F)c1ccc(Cl)cc1)N1CCCC1c1ccccc1F (centres unmarked) [Cpd 144] | 102 | 7.96 |  |  | 
COc1ccccc1C1CCCN1C(=O)C(Nc1c(F)cccc1F)c1ccc(Cl)cc1 (centres unmarked) [Cpd 145] | 99 | 7.80 |  |  | 
O=C(C(Nc1c(F)cccc1F)c1ccc(Cl)cc1)N1CCCC1c1ccccc1 (centres unmarked) [Cpd 146] | 99 | 7.92 |  |  | 
O=C(C(Nc1c(F)cccc1F)c1ccc(Cl)cc1)N1Cc2ccccc2C1 (centres unmarked) [Cpd 147] | 93 | 6.88 |  |  | 
COc1ccccc1C1CCCN1C(=O)C(Nc1ccccc1F)c1ccc(C(F)(F)F)cc1 (centres unmarked) [Cpd 148] | 99 | 7.92 |  |  | 
COc1ccccc1C1CCCN1C(=O)C(Nc1cccc(F)c1F)c1ccc(Cl)cc1 (centres unmarked) [Cpd 167] | 97 | 7.47 |  |  | 
O=C(C(Nc1cccc(F)c1F)c1ccc(Cl)cc1)N1CCCC1c1ccccc1 (centres unmarked) [Cpd 168] | 97 | 7.46 |  |  | 
O=C(C(Nc1cccc(F)c1F)c1ccc(Cl)cc1)N1Cc2ccccc2C1 (centres unmarked) [Cpd 169] | 92 | 6.85 |  |  | 
O=C(C(Nc1cc(F)ccc1F)c1ccc(Cl)cc1)N1CCCC1c1ccccc1F (centres unmarked) [Cpd 170] |  | 7.58 | 100 |  | 
O=C(C(Nc1cc(F)ccc1F)c1ccc(Cl)cc1)N1CCCC1c1ccccc1Cl (centres unmarked) [Cpd 171] |  | 7.38 | 98 |  | 

SMILES | inhibition at 0.5 µM [%] | pIC50 | inhibition at 0.2 µM [%] | % Inh @ 0.2 μM [%] | % Inh @ 0.2 μM (0.2 µM) [%]
COc1ccccc1C1CCCN1C(=O)C(Nc1cc(F)ccc1F)c1ccc(Cl)cc1 (centres unmarked) [Cpd 172] |  | 7.53 | 102 |  | 
O=C(C(Nc1cc(F)ccc1F)c1ccc(Cl)cc1)N1CCCC1c1ccccc1 (centres unmarked) [Cpd 173] |  | 7.45 | 103 |  | 
O=C(C(Nc1cc(F)ccc1F)c1ccc(Cl)cc1)N1Cc2ccccc2C1 (centres unmarked) [Cpd 174] |  | 7.34 | 98 |  | 
CN(C)c1ccc(C2CCCN2C(=O)C(Nc2ccccc2F)c2ccc(C(F)(F)F)cc2)cc1 (centres unmarked) [Cpd 178] |  | 8.00 | 100 |  | 
Cc1c(C(Cc2ccccc2F)C(=O)N2Cc3ccccc3C2)sc2ccccc12 (centres unmarked) [Cpd 179] |  | 7.42 | 96 |  | 
O=C(C(Nc1c(F)cccc1F)c1ccc(Br)cc1)N1CCC[C@H]1c1ccccc1F (some centres unmarked) [Cpd 181] |  | 8.30 | 96 |  | 
CCOC(=O)c1ccc(C(Nc2c(F)cccc2F)C(=O)N2CCC[C@H]2c2ccccc2F)cc1 (stereo partly drawn) [Cpd 183, 4-{1-(2,6-Difluoro-phenylamino)-2-[(2S)-2-(2-fluoro-phenyl)-pyrrolidin-1-yl]-2-oxo-ethyl}-benzoic acid ethyl ester] |  | 8.00 | 99 |  | 
O=C(C(Nc1ccccc1F)c1ccc(C(F)(F)F)cc1)N1CCCC1c1ccccc1Cl (centres unmarked) [Cpd 188] |  |  |  | 30 | 
O=C(N1CCCC1c1ccccc1)C1(c2ccc(C(F)(F)F)cc2)CCc2ccccc2N1 (centres unmarked) [Cpd 194, (2-Phenyl-pyrrolidin-1-yl)-[2-(4-trifluoromethyl-phenyl)-1,2,3,4-tetrahydro-quinolin-2-yl]-methanone] |  | 6.80 | 70 |  | 
COC(=O)C1CCC(c2ccccc2)N1C(=O)C(Nc1ccccc1F)c1ccc(Br)cc1 (centres unmarked) [Cpd 195] |  |  |  |  | 32
COC(=O)C1CCC(c2ccccc2)N1C(=O)C(Nc1ccccc1F)c1ccc(Br)cc1 (centres unmarked) [Cpd 196] |  |  |  |  | 41
O=C(C(Nc1ccccc1F)c1ccc(C(F)(F)F)cc1)N1CCCC1c1ccncc1 (centres unmarked) [Cpd 197] |  | 7.72 | 97 |  | 
CC(C)(O)c1ccccc1OC(C(=O)N1CCCC1c1ccccc1F)c1ccc(C(F)(F)F)cc1 (centres unmarked) [Cpd 199, 1-[2-(2-Fluoro-phenyl)-pyrrolidin-1-yl]-2-[2-(1-hydroxy-1-methyl-ethyl)-phenoxy]-2-(4-trifluoromethyl-phenyl)-ethanone] |  |  | 62 |  | 
O=C(C(Cc1ccccc1F)c1ccc(C(F)(F)F)cc1)N1Cc2ccccc2C1 (centres unmarked) [Cpd 200] |  | 7.26 | 89 |  | 
O=C(C(Cc1ccccc1F)c1ccc(C(F)(F)F)cc1)N1CCCC1c1ccccc1F (centres unmarked) [Cpd 201, 3-(2-Fluoro-phenyl)-1-[2-(2-fluoro-phenyl)-pyrrolidin-1-yl]-2-(4-trifluoromethyl-phenyl)-propan-1-one] |  | 7.49 | 99 |  | 
O=C(C(Nc1ccccc1F)c1ccc(C(F)(F)F)cc1)N1CCCC1c1ccccn1 (centres unmarked) [Cpd 202] |  | 7.60 | 100 |  | 
O=C(C(Nc1ccccc1F)c1ccc(C(F)(F)F)cc1)N1CCCC1c1cccnc1 (centres unmarked) [Cpd 203] |  | 8.15 | 102 |  | 
COC(=O)C1CCC(c2ccccc2)N1C(=O)C(Nc1ccccc1)c1ccc(Cl)cc1 (centres unmarked) [Cpd 207] |  |  |  |  | 47
COC(=O)C1CCC(c2ccccc2)N1C(=O)C(Nc1c(F)cccc1F)c1ccc(Br)cc1 (centres unmarked) [Cpd 210] |  | 8.15 | 99 |  | 
COC(=O)C1CCC(c2ccccc2)N1C(=O)C(Nc1c(F)cccc1F)c1ccc(Br)cc1 (centres unmarked) [Cpd 211] |  |  |  |  | 69
COC(=O)C1CCC(c2ccccc2)N1C(=O)C(Nc1ccccc1)c1ccc(Cl)cc1 (centres unmarked) [Cpd 213] |  |  |  |  | 63
